From PubChem BioAssay (NCI)
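Compound exposure: 48 hours, 5 concentrations, 96-well plates. Abbreviation: GI50, concentration required for 50% inhibition of growth. At the TGI there is no net growth.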

Tests used:
Assay in all cases: DTP human tumour cell line panel, 48 h
[1] = system: TK-10 renal
[2] = system: SN12C renal
[3] = system: SK-MEL-28 melanoma
[4] = system: MDA-N
[5] = system: T-47D breast
[6] = system: A498 renal
[7] = system: SNB-75 CNS
[8] = system: OVCAR-8 ovarian
[9] = system: OVCAR-3 ovarian
[10] = system: HS 578T breast
[11] = system: A549 NSCLC
[12] = system: CCRF-CEM leukemia

SMILES	TGI [1] [µM]	TGI [2] [µM]	TGI [3] [µM]	TGI [4] [µM]	TGI [5] [µM]	TGI [6] [µM]	TGI [7] [µM]	TGI [8] [µM]	TGI [9] [µM]	TGI [10] [µM]	TGI [11] [µM]	TGI [12] [µM]	GI50 [7] [µM]	GI50 [12] [µM]	GI50 [2] [µM]	GI50 [3] [µM]	GI50 [5] [µM]	GI50 [6] [µM]	GI50 [8] [µM]	GI50 [10] [µM]
CN(C)CCCSc1nc2ccccc2[nH]1	> 100	> 100	> 100	> 100	> 100	> 100	> 100	> 100	> 100	> 100	> 100									
CCOC(=O)c1cnc2oc3ccc(O)cc3c2c1C	> 100	> 100	> 100	> 100	> 100	> 100	82.9	> 100	> 100	> 100	> 100	> 100	26							
COc1ccc2[nH]cc(CCNC(=O)[C@H](Cc3ccccc3)NC(=O)[C@@H](NCC(F)(F)F)C(C)C)c2c1	57.4	49	31.8	34				54.4	31.1	39.6	70	7.89								
CCCCCCCCCCCCCCCCCCOc1ccccc1CC(=O)OCC[N+]1(C)CCCCC1		4.93	6.33		9.37	9.71	3.72	5.99		6.53		4.63	1.39	1.96	2.07	2.51	2.49	2.53	2.4	2.32
CN(CCCCCl)P(=O)(OCc1ccc([N+](=O)[O-])o1)OC[C@H]1O[C@@H](n2cc(F)c(=O)[nH]c2=O)C[C@@H]1O (some centres not stated)	> 79.8	9.07	> 61.3	33.3	5.41	0.0982	6.95	> 100	19.1	8.68	> 26.4	20.7								
CN1CCOC(c2ccc(Cl)cc2)O1 (configuration not stated)	> 100	> 100	> 100	> 100		> 100	> 100	> 100	> 100		> 100	> 100								
CC(CCN)(CCN)[N+](=O)[O-]	> 100	> 100	> 100	> 100	> 100	> 100	> 100	> 100	> 100	> 100	> 100	> 100								
COc1cc2c(c(O)c1OC)-c1c(cc(OC)c(OC)c1OC)CC(C)C(C)C2 (configuration not stated)	> 100	> 100	> 100	> 100	> 100	> 100	> 100	> 100	> 100	> 100	> 100	62.1								
C1=NCCN2CCN(CCN=Cc3ccc(cc3)OCc3cccc(n3)COc3ccc1cc3)CC2	> 50	> 50	> 50			> 50	> 50	> 50	> 50	> 50	> 50	> 50								
C=C1c2ccccc2C(=O)c2c1c1c(C(=O)OC)c(O)ccc1n2Cc1ccccc1	1.55	0.939	1.07	1.55		2.27	0.899	0.952	0.392	1.73	3.6	0.74								
O=C(O)c1cc([N+](=O)[O-])cc2c(=O)c3cnccc3[nH]c12		> 100	> 100	> 100	> 100	> 100	> 100	> 100	> 100	> 100		> 100								
COC1=C(OC)C(=O)C(Cc2c(Cl)nc3sc(C)cn23)=C(C)C1=O	31.7	30.5	32.2	32.8	> 100	65.5		41.2	26.1	66.4	41.8	8.73								
O=C([O-])C[n+]1ccccc1	> 100	> 100	> 100	> 100	> 100	> 100	> 100	> 100	> 100	> 100	> 100	> 100								
Cn1c2ccccc2n2c(N=O)c(-c3ccccc3)nc12	> 100	> 100	> 100	> 100	> 100	> 100	49.8	> 100	> 100	> 100	57.6	> 100								
Nc1ncnc2c1ncn2C=C=CCO	> 100	> 100	> 100		> 100	> 100	> 100	> 100	> 100	> 100		> 100								
C[C@]12C=CC(=O)C=C1CC[C@@H]1[C@@H]2CC[C@]2(C)OC(=O)CC[C@@H]12	> 500	> 500	> 500	> 500	> 500	496	> 487	498	> 500	> 500	478	> 500								
Cc1ccc(S(=O)(=O)n2cc(-c3cc(C(F)(F)F)ccn3)c3cc(Br)ccc32)cc1	44.8	88	62.6	> 100	18.9	46.9			30.7	41.3	51.8	> 100								
CN1CCc2[nH]c3ccccc3c2C1		> 100	> 100			> 100	> 100	> 100	> 100		> 100	> 100								
CCOc1ccc(NC(=O)C(=O)CC(=O)c2sc(NNC(C)=O)nc2C)cc1	> 100	> 100	> 100			> 100	> 100	> 100			> 100	> 100								
O=C(Nc1ccc(Cl)cc1)c1cc2cc(N=Nc3ccccc3Cl)ccc2oc1=O	89.4	44.7	55.7				72.5	59	75.6		> 100	5.38								
